For data set [1], the target named is recombinant human Muscarinic M1 receptor (Homo sapiens (Human), UniProt P11229). As to the kind of experiment: Allosteric potency EC50, CHO cells with pCRE-Luc reporter, in presence of EC20 of acetylcholine. The data set is classed as cell-based. The conditions noted are these: 4 hours. As to the method:
Determination of Allosteric Potency EC50 Values for Muscarinic M1 Receptor:
A stable CHO cell line expressing recombinant human Muscarinic M1 receptor and pCRE-Luc reporter system was used for cell-based assay. The assay offers a non-radioactive based approach to determine binding of a compound to GPCRs. In this specific assay, the level of intracellular cyclic AMP which is modulated by activation or inhibition of the receptor is measured. The recombinant cells harbor luciferase reporter gene under the control of cAMP response element.
The above cells were grown in 96 well clear bottom white plates in Hams F12 medium containing 10% fetal bovine serum (FBS). Prior to the addition of compounds or standard agonist, cells were serum starved overnight. Increasing concentrations of test compounds were added along with EC20 of acetylcholine in OptiMEM medium to the cells. The incubation was continued at 37° C. in CO2 incubator for 4 hours. Medium was removed and cells were washed with phosphate buffered saline. The cells were lysed and luciferase activity was measured in a Luminometer. Luminescence units were plotted against the compound concentrations using Graphpad software. EC50 values of the compounds were defined as the concentration required in stimulating the luciferase activity by 50% in presence of EC20 of acetylcholine.

A short description of data set [2]: Rodent pharmacokinetic study. The format is in vivo, rat. To be noted: male Wistar rats; for clearance / half-life / Vd / Cmax / Tmax / bioavailability: rat, plasma; for Vd: read-out: Vz; for bioavailability: 3 mg/kg oral vs 1 mg/kg i.v. As to the method:
Rodent Pharmacokinetic Study
Male Wistar rats (260±50 grams) were used as experimental animals. Animals were housed individually in polypropylene cage. Two days prior to study, male Wistar rats were anesthetized with isoflurane for surgical placement of jugular vein catheter. Rats were randomly divided for oral (3 mg/kg) and intravenous (1 mg/kg) dosing (n=3/group) and fasted overnight before oral dosing (p.o.). However, rats allocated to intravenous (i.v.) dosing food and water was provided ad libitum.
At pre-determined point, blood was collected through jugular vein and replenished with an equivalent volume of normal saline. Collected blood was transferred into a labeled eppendorf tube containing 10 μL of heparin as an anticoagulant. Typically blood samples were collected at following time points: 0.08, 0.25, 0.5, 1, 2, 4, 6, 8, and 24 hours post dose. Blood was centrifuged at 4000 rpm for 10 minutes. Plasma was separated and stored frozen at −80° C. until analysis. The concentrations of the test compounds were quantified in plasma by qualified LC-MS/MS method using suitable extraction technique. The test compounds were quantified in the calibration range around 1-1000 ng/mL in plasma. Study samples were analyzed using calibration samples in the batch and quality control samples spread across the batch.
Pharmacokinetic parameters Cmax, Tmax, AUCt, T1/2, clearance, Vz and bioavailability were calculated by non-compartmental model using standard non-compartmental model by using Phoenix WinNonlin 6.0.2 or 6.0.3 version Software package.

recombinant human Muscarinic M1 receptor, sequence (P11229 whole entry): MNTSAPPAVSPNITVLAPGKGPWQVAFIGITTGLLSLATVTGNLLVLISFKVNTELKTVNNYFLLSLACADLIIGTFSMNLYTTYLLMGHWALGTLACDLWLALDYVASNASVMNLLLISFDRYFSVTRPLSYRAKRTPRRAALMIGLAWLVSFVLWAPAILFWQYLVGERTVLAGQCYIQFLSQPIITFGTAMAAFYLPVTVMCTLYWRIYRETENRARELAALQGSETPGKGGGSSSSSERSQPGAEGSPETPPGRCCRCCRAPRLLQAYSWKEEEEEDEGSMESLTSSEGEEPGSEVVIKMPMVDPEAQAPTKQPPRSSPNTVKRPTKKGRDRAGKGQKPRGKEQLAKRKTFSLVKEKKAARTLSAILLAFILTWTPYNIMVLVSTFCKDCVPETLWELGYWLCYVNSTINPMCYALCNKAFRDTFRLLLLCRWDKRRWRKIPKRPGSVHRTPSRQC

Consider `O=C(N[C@H]1CCCC[C@@H]1O)C1=CN(Cc2ccc(F)c(F)c2)c2ccccc2O1` [Example 19, N-(cis-1S,2S-2-Hydroxycyclohexyl)-4-(3,4-difluorobenzyl)-4H-benzo[1,4]oxazine-2-carboxamide], for which, in data set [1], the EC50 (commonly the concentration that produces a half-maximal response) came out at 120 nM. Also, in data set [2] (1 mg/kg i.v. (bolus)), the AUC0-t is 1240 ± 84 ng·h/mL. Moreover, in data set [2] (3 mg/kg oral (gavage)), the AUC0-t came out at 2490 ± 223 ng·h/mL; the highest level (Cmax) was 252 ± 17 ng/mL; the time to peak (Tmax) – broadly, the time from dosing to the highest level – is 1.67 ± 0.6 h; the half-life (in general, how long it takes for the measured level to halve) is 3.7 ± 0.1 h. In addition, in data set [2] (iv, 1 mg/kg i.v. (bolus)), the clearance (in general, the volume of plasma or blood freed of the substance per unit of time) came out at 13 ± 1 mL/min/kg; the half-life is 3.8 ± 0.5 h; the Vd amounted to 4.4 ± 0.2 L/kg. In addition, the bioavailability (in general, dose-corrected exposure relative to a reference, in per cent) in data set [2] stood at 67 ± 6%. `O=C(N[C@H]1CCCC[C@@H]1O)C1=CN(Cc2ccccn2)c2ccccc2S1` [Example 92, N-(cis-1S,2S-2-Hydroxycyclohexyl)-4-{pyridin-2-ylmethyl}-4H-benzo[1,4]thiazine-2-carboxamide]: the EC50 in data set [1] was found to be 1470 nM. The same molecule registered an AUC0-t in data set [2] (1 mg/kg i.v. (bolus)) of 262 ± 50 ng·h/mL. In data set [2] (3 mg/kg oral (gavage)), the AUC0-t came out at 255 ± 32 ng·h/mL; the Cmax – broadly, the peak of the concentration-time curve – is 195 ± 22 ng/mL; the Tmax was 0.33 ± 0.14 h; the half-life was 1.7 ± 1 h. Besides, in data set [2] (iv, 1 mg/kg i.v. (bolus)), the clearance was 64 ± 11 mL/min/kg, the half-life is 0.8 ± 0.2 h and the Vd was determined as 4.2 ± 0.7 L/kg. This molecule returned a bioavailability in data set [2] of 32 ± 4%. Take `O=C(N[C@H]1CCCC[C@@H]1O)C1=CN(Cc2ccc(Cl)c(Cl)c2)c2ccccc2O1` [Example 26, N-(cis-1S, 2S-2-Hydroxycyclohexyl)-4-(3,4-dichlorobenzyl)-4H-benzo[1,4]oxazine-2-carboxamide]: the half-maximal effective concentration (EC50) in data set [1] was determined as 159 nM.

On to `O=C(N[C@@H]1CCC[C@H]1O)C1=CN(Cc2ccccc2F)c2ccccc2O1` [Example 40, N-(trans-1R,2R-2-Hydroxycyclopentyl)-4-(2-fluorobenzyl)-4H-benzo[1,4]oxazine-2-carboxamide], for which the EC50 in data set [1] was determined as 1530 nM. Same read-out and setting: next, `O=C(N[C@H]1CCCC[C@@H]1O)C1=CN(Cc2cccc(F)c2F)c2cccc(F)c2O1` [Example 29, N-(cis-1S,2S-2-Hydroxycyclohexyl)-4-(2,3-difluorobenzyl)-8-fluoro-4H-benzo[1,4]oxazine-2-carboxamide]: 140 nM; `O=C(N[C@H]1CCCC[C@@H]1O)C1=CN(Cc2ccccn2)c2ccccc2[S+]1[O-]` (stereo partly drawn) [Example 96, N-(cis-1 S, 2S-2-Hydroxycyclohexyl)-4-{pyridin-2-ylmethyl}-1-oxo-4H-benzo[1,4]thiazine-2-carboxamide]: 2160 nM; `O=C(Nc1ccccc1CO)C1=CN(Cc2ccccc2F)c2cccc(F)c2O1` [Example 46, N-(2-Hydroxymethylphenyl)-4-(2-fluorobenzyl)-8-fluoro-4H-benzo[1,4]oxazine-2-carboxamide]: 1080 nM. On the same count and under the same terms, next, `COc1ccc(CN2C=C(C(=O)N[C@H]3CCCC[C@@H]3O)Oc3ccccc32)cn1` [Example 15, N-(cis-1S,2S-2-Hydroxycyclohexyl)-4-(2-methoxypyridin-5-ylmethyl)-4H-benzo[1,4]oxazine-2-carboxamide]: 591 nM; `O=C(N[C@H]1CCCC[C@@H]1O)C1=CN(Cc2ccncc2F)c2ccccc2O1` [Example 34, N-(cis-1S,2S-2-Hydroxycyclohexyl)-4-(3-fluoropyridin-4-ylmethyl)-4H-benzo[1,4]oxazine-2-carboxamide]: 1520 nM. Still for that read-out and setting: next, `O=C(N[C@H]1CCCC[C@@H]1O)C1=CN(Cc2ccccc2F)c2c(F)cccc2O1` [Example 55, N-(cis-1S,2S-2-Hydroxycyclohexyl)-4-(2-fluorobenzyl)-5-fluoro-4H-benzo[1,4]oxazine-2-carboxamide]: 828 nM; `O=C(N[C@H]1CCCC[C@@H]1O)C1=CN(Cc2ccccc2C(F)(F)F)c2ccccc2O1` [Example 37, N-(cis-1S, 2S-2-Hydroxycyclohexyl)-4-(2-trifluoromethylbenzyl)-4H-benzo[1,4]oxazine-2-carboxamide]: 534 nM. Take `COc1ccc(CN2C=C(C(=O)NCC(C)(C)O)Oc3ccccc32)cn1` [Example 16, N-(2-Hydroxy-2-methylpropyl)-4-(2-methoxypyridin-5-ylmethyl)-4H-benzo[1,4]oxazine-2-carboxamide]: the concentration giving a half-maximal response (EC50) in data set [1] was found to be 1350 nM. Still for that read-out and setting: the result for `O=C(N[C@H]1CCCC[C@@H]1O)C1=CN(Cc2ccc(Cl)cc2Cl)c2ccccc2O1` [Example 28, N-(cis-1S, 2S-2-Hydroxycyclohexyl)-4-(2,4-dichlorobenzyl)-4H-benzo[1,4]oxazine-2-carboxamide] reads 250 nM; that for `O=C(N[C@H]1CCCC[C@@H]1O)C1=CN(Cc2ccccc2Cl)c2cccc(F)c2O1` [Example 38, N-(cis-1S, 2S-2-Hydroxycyclohexyl)-4-(2-chlorobenzyl)-8-fluoro-4H-benzo[1,4]oxazine-2-carboxamide], 262 nM; that for `Cn1ccc(-c2cc(CN3C=C(C(=O)N[C@H]4CCCC[C@@H]4O)Oc4ccccc43)ccn2)n1` [Example 59, N-(cis-1S,2S-2-Hydroxycyclohexyl)-4-[12-(1-methyl-1H-pyrazol-3-yl)-pyridin-4-ylmethyl]-4H-benzo[1,4]oxazine-2-carboxamide], 1010 nM. For the molecule `CC(C)C(CO)NC(=O)C1=CN(Cc2ccccc2F)c2cccc(F)c2O1` (centres unmarked) [Example 47, N-(1-Hydroxymethyl-2-methylpropyl)-4-(2-fluorobenzyl)-8-fluoro-4H-benzo[1,4]oxazine-2-carboxamide], the concentration for a half-maximal effect (EC50) in data set [1] worked out at 1320 nM. Still for that read-out and setting: next, `O=C(Nc1ccccc1CO)C1=CN(Cc2ccccc2F)c2ccccc2O1` [Example 43, N-(2-Hydroxymethylphenyl)-4-(2-fluorobenzyl)-4H-benzo[1,4]oxazine-2-carboxamide]: 1620 nM; `O=C(N[C@H]1CCCC[C@@H]1O)C1=CN(Cc2ccccc2)c2cccc(F)c2O1` [Example 48, N-(cis-1S,2S-2-Hydroxycyclohexyl)-4-benzyl-8-fluoro-4H-benzo[1,4]oxazine-2-carboxamide]: 143 nM. Consider `O=C(N[C@H]1CCCC[C@@H]1O)C1=CN(Cc2ccnc(-c3ccccc3)c2)c2ccccc2O1` [Example 52, N-(cis-1S,2S-2-Hydroxycyclohexyl)-4-(2-phenylpyridin-4-ylmethyl)-4H-benzo[1,4]oxazine-2-carboxamide], for which the EC50 in data set [1] was found to be 1350 nM. The same measure, in the same setting: the result for `O=C(N[C@H]1CCCC[C@@H]1O)C1=CN(Cc2ccc(F)cc2)c2ncccc2O1` [Example 35, N-(cis-1S,2S-2-Hydroxycyclohexyl)-4-(4-fluorobenzyl)-4H-pyrido[3,2-b][1,4]oxazine-2-carboxamide] reads 1580 nM; that for `O=C(N[C@H]1CCCC[C@@H]1O)C1=CN(Cc2cccc(F)c2F)c2ccccc2S1` [Example 85, N-(cis-1S,2S-2-Hydroxycyclohexyl)-4-(2,3-difluorobenzyl)-4H-benzo[1,4]thiazine-2-carboxamide], 117 nM; that for `CC(C)(O)CNC(=O)C1=CN(Cc2ccc(F)cc2)c2ccccc2O1` [Example 14, N-(2-Hydroxy-2-methylpropyl)-4-(4-fluorobenzyl)-4H-benzo[1,4]oxazine-2-carboxamide], 1360 nM. Same read-out and setting: the result for `O=C(N[C@H]1CCCC[C@@H]1O)C1=CN(Cc2cccc(F)c2)c2ccccc2S1` [Example 86, N-(cis-1S,2S-2-Hydroxycyclohexyl)-4-(3-fluorobenzyl)-4H-benzo[1,4]thiazine-2-carboxamide] reads 936 nM; that for `O=C(N[C@H]1CCCC[C@@H]1O)C1=CN(Cc2ccnc(-c3ccccc3)c2)c2cccc(F)c2O1` [Example 53, N-(cis-1S,2S-2-Hydroxycyclohexyl)-4-(2-phenylpyridin-4-ylmethyl)-8-fluoro-4H-benzo[1,4]oxazine-2-carboxamide], 230 nM; that for `Cc1ncccc1CN1C=C(C(=O)N[C@H]2CCCC[C@@H]2O)Oc2ccccc21` [Example 27, N-(cis-1S,2S-2-Hydroxycyclohexyl)-4-(2-methylpyridin-3-ylmethyl)-4H-benzo[1,4]oxazine-2-carboxamide], 1370 nM. The same measure, in the same setting: next, `O=C(N[C@H]1CCCC[C@@H]1O)C1=CN(Cc2ccnc(Cl)c2)c2cccc(F)c2O1` [Example 54, N-(cis-1S,2S-2-Hydroxycyclohexyl)-4-(2-chloropyridin-4-ylmethyl)-8-fluoro-4H-benzo[1,4]oxazine-2-carboxamide]: 88 nM.

The record behind these values is patent publication US10308620B2, “Muscarinic M1 receptor positive allosteric modulators” (SUVEN LIFE SCIENCES LIMITED, priority 2015, dated 2019).
